# Where a SMILES comes first, the peptide text is derived from it. Bridges are numbered along the chain shown (N, C = ends). [ ]: non-standard residue; d: D form. The star is where a group is joined. hPhe(3-Cl-4-CF3) = N[C@@H](CCc1ccc(C(F)(F)F)c(Cl)c1)C(=O)O; NPrPhe(4-CF3) = CCCN[C@@H](Cc1ccc(C(F)(F)F)cc1)C(=O)O; NMeGly(cPent) = CN[C@H](C(=O)O)C1CCCC1; Pro(4,4-F2) = O=C(O)[C@@H]1CC(F)(F)CN1; Pro(4,4-Me2) = CC1(C)CN[C@H](C(=O)O)C1; NMeD = CN[C@@H](CC(=O)O)C(=O)O; NMeL = CN[C@@H](CC(C)C)C(=O)O; N(Me)CH2CH2OMe = COCCN(C)*; Morpholide = C1CN(*)CCO1; NMeA = CN[C@@H](C)C(=O)O; Ac5c = NC1(C(=O)O)CCCC1; Aze = O=C(O)[C@@H]1CCN1; Ac4c = NC1(C(=O)O)CCC1; Sar = CNCC(=O)O
# Experiments:
# HRAS wild-type protein = HRAS wild-type protein (Homo sapiens, UniProt P01112); test: Binding to HRAS by surface plasmon resonance (SPR), KD and KD ratio to KRAS
# Procedure, shortened: (§1)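 GDP-loaded biotinylated Avi-tag RAS proteins (E. coli-expressed) captured on a Biotin CAPture chip at ~100–300 RU; single-cycle kinetics at 30°C, 100 µL/min, 75 s injections of rising compound concentrations. HBS pH 7.4 running buffer with 1 mM DTT, 10 mM MgCl2, 10 µM GDP, 4% DMSO. KD from 1:1 binding fit.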
# [1] = test system: human lung cancer strain NCI-H441; type: cell-based
# Procedure, shortened: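 Readout: […] after the ATP-based reagent. Compound: serial dilutions in dimethyl sulfoxide.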
# [2] = molecular target: GDP-bound NRAS wild-type protein (Homo sapiens, UniProt P01111); test: Binding to NRAS by surface plasmon resonance (SPR), KD and KD ratio to KRAS
# Procedure, shortened: as §1
# [3] = ratio of KD for HRAS wild-type protein to KD for KRAS
# [4] = ratio of KD for GDP-bound NRAS wild-type protein to KD for KRAS
# [5] = ratio of the KD value with respect to HRAS wild-type protein to the KD value with respect to KRAS
# [6] = ratio of the KD value with respect to GDP-bound NRAS wild-type protein to the KD value with respect to KRAS
# [7] = ratio of KD value for HRAS wild-type protein to KD value for KRAS (SPR)
# [8] = ratio of KD value for GDP-bound NRAS wild-type protein to KD value for KRAS (SPR)
# GDP-bound NRAS wild-type protein, sequence (P01111 whole entry): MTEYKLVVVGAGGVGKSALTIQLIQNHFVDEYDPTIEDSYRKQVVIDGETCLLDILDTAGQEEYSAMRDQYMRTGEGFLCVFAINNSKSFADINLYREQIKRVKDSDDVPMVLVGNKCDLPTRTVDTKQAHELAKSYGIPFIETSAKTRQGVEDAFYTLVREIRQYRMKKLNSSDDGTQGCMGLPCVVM
# HRAS wild-type protein, sequence (P01112 whole entry): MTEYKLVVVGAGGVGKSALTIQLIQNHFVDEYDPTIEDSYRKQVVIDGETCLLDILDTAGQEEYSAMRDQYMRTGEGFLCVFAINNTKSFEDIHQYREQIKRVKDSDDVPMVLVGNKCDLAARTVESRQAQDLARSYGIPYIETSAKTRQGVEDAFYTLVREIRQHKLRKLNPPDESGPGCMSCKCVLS
SMILES,IC50 [1] [nM],HRAS /KRAS (HRAS wild-type protein; [3]),"NRAS /KRAS [2, 4]",HRAS /KRAS (HRAS wild-type protein; [5]),"NRAS /KRAS [2, 6]",HRAS /KRAS (HRAS wild-type protein; [7]),"NRAS /KRAS [2, 8]"
C#CC[C@H]1C(=O)N[C@@H]([C@@H](C)CC)C(=O)N(C)CC(=O)N(C)[C@H]2C/C=C\CCN(C2=O)[C@@H](Cc2ccc(C(F)(F)F)cc2)C(=O)N(C)CC(=O)N[C@@H](CCc2cc(F)c(C(F)(F)F)c(F)c2)C(=O)N2C[C@H](F)C[C@H]2C(=O)NC2(CC(C)(C)C2)C(=O)N(C)[C@@H](C2CCCC2)C(=O)N(C)[C@H](C(=O)N(C)CCC)CC(=O)N1C [PP1692],4.3,–,–,–,–,A (a compound having 10 or more and less than 20 is denoted as A),AA (a compound having 20 or more is denoted as AA)
CCCN1C(=O)CN(C)C(=O)CN(C)C(=O)[C@H]([C@@H](C)CC)NC(=O)[C@H](CC(C)C)N(C)C(=O)C[C@@H](C(=O)N(C)CCOC)N(C)C(=O)[C@H](C2CCCC2)N(C)C(=O)C2(CCCC2)NC(=O)[C@@H]2CCCN2C(=O)[C@H](CCc2ccc(C(F)(F)F)c(Cl)c2)NC(=O)CN(C)C(=O)[C@@H]1Cc1ccc(C(F)(F)F)cc1 [PP0391] ([NMeL]I[Sar][Sar][NPrPhe(4-CF3)][Sar][hPhe(3-Cl-4-CF3)]P[Ac5c][NMeGly(cPent)][NMeD]-{N(Me)CH2CH2OMe}; lactam N-11),1.1,–,–,B (a compound having 3 or more and less than 10 is denoted as B),B (a compound having 3 or more and less than 10 is denoted as B),–,–
CCC[C@H]1C(=O)N[C@@H]([C@@H](C)CC)C(=O)N(C)CC(=O)N(C)[C@H]2C/C=C\CCN(C2=O)[C@@H](Cc2ccc(C(F)(F)F)cc2)C(=O)N(C)CC(=O)N[C@@H](CCc2ccc(Cl)c(Cl)c2)C(=O)N2C[C@H](OCC)C[C@H]2C(=O)NC2(CC(C)(C)C2)C(=O)N(C)[C@@H](C2CCCC2)C(=O)N(C)[C@H](C(=O)N(C)C)CC(=O)N1C [PP1932],13.1,–,–,A (a compound having 10 or more and less than 20 is denoted as A),A (a compound having 10 or more and less than 20 is denoted as A),–,–
CCO[C@@H]1C[C@H]2C(=O)NC3(CC(C)(C)C3)C(=O)N(C)[C@@H](C(CC)CC)C(=O)N(C)[C@H](C(=O)N(C)C)CC(=O)N(C)[C@@H](CC3CCC3)C(=O)N[C@@H]([C@@H](C)CC)C(=O)N(C)CC(=O)N(C)[C@H]3C/C=C\CCN(C3=O)[C@@H](Cc3ccc(C)cc3)C(=O)N(C)CC(=O)N[C@@H](CCc3cc(F)c(C(F)(F)F)c(F)c3)C(=O)N2C1 [PP2151],23.3,–,–,A (a compound having 10 or more and less than 20 is denoted as A),A (a compound having 10 or more and less than 20 is denoted as A),–,–
CCCO[C@@H]1C[C@H]2C(=O)NC3(CC(C)(C)C3)C(=O)N(C)[C@@H](C(CC)CC)C(=O)N(C)[C@H](C(=O)N(C)C)CC(=O)N(C)[C@H]3CCCCc4ccc(cc4)C[C@@H](C(=O)N(C)CC(=O)N[C@@H](CCc4ccc(C(F)(F)F)c(OC)c4)C(=O)N2C1)N1CC/C=C\C[C@@H](C1=O)N(C)C(=O)CN(C)C(=O)[C@H]([C@@H](C)CC)NC3=O [PP3038],3.1,A (a compound having 10 or more and less than 20 is denoted as A),A (a compound having 10 or more and less than 20 is denoted as A),–,–,–,–

# More lines, main results first:
IC50 [1] [nM],SMILES,HRAS /KRAS (HRAS wild-type protein; [3]),"NRAS /KRAS [2, 4]",HRAS /KRAS (HRAS wild-type protein; [5]),"NRAS /KRAS [2, 6]",HRAS /KRAS (HRAS wild-type protein; [7]),"NRAS /KRAS [2, 8]"
4.6,"CCCN1C(=O)[C@@H]2CCN2C(=O)[C@H](C)N(C)C(=O)[C@H]([C@@H](C)CC)NC(=O)[C@H](CC(C)C)N(C)C(=O)C[C@@H](C(=O)N2CCOCC2)N(C)C(=O)[C@H](C2CCCC2)N(C)C(=O)C2(CCC2)NC(=O)[C@@H]2CC(F)(F)CN2C(=O)[C@H](CCc2ccc(C(F)(F)F)c(Cl)c2)NC(=O)CN(C)C(=O)[C@@H]1Cc1ccc(C(F)(F)F)cc1 [PP0208] ([NMeL]I[NMeA][Aze][NPrPhe(4-CF3)][Sar][hPhe(3-Cl-4-CF3)][Pro(4,4-F2)][Ac4c][NMeGly(cPent)][NMeD]-Morpholide; lactam N-11)",C (A compound having a KD ratio of 0.1 or more and less than 3 is denoted as C),C (A compound having a KD ratio of 0.1 or more and less than 3 is denoted as C),–,–,–,–
120,CCCN1C(=O)CN(C)C(=O)CN(C)C(=O)[C@H]([C@@H](C)CC)NC(=O)[C@@H]2CCCCCCC[C@@](C)(NC(=O)[C@@H]3C[C@@H](OCC)CN3C(=O)[C@H](CCc3cc(F)c(C(F)(F)F)c(F)c3)NC(=O)CN(C)C(=O)[C@@H]1Cc1ccc(C(F)(F)F)cc1)C(=O)N(C)[C@@H](C1CCCC1)C(=O)N(C)[C@H](C(=O)N1CCOCC1)CC(=O)N2C [PP0898],B (a compound having 3 or more and less than 10 is denoted as B),B (a compound having 3 or more and less than 10 is denoted as B),–,–,–,–
110,CCO[C@@H]1C[C@H]2C(=O)NC3(CCC3)C(=O)N(C)[C@@H](C3CCCC3)C(=O)N(C)[C@H](C(=O)N3CCOCC3)CC(=O)N(C)[C@@H](CC(C)C)C(=O)N[C@@H]([C@@H](C)CC)C(=O)N(C)CC(=O)N(C)[C@H]3CCCCCN(C3=O)[C@@H](Cc3ccc(F)c(Cl)c3)C(=O)N(C)CC(=O)N[C@@H](CCc3cc(F)c(C(F)(F)F)c(F)c3)C(=O)N2C1 [PP0919],B (a compound having 3 or more and less than 10 is denoted as B),B (a compound having 3 or more and less than 10 is denoted as B),–,–,–,–
19.1,C#CC[C@H]1C(=O)N[C@@H]([C@@H](C)CC)C(=O)N(C)CC(=O)N(C)[C@H]2CCCCCN(C2=O)[C@@H](Cc2ccc(C(F)(F)F)cc2)C(=O)N(C)CC(=O)N[C@@H](CCc2cc(F)c(C(F)(F)F)c(F)c2)C(=O)N2C[C@H](OCC)C[C@H]2C(=O)NC2(CCC2)C(=O)N(C)[C@@H](C2CCCC2)C(=O)N(C)[C@H](C(=O)N(C)C)CC(=O)N1C [PP0666],–,–,B (a compound having 3 or more and less than 10 is denoted as B),B (a compound having 3 or more and less than 10 is denoted as B),–,–
37,CCO[C@@H]1C[C@H]2C(=O)NC3(CC(F)(F)C3)C(=O)N(C)[C@@H](C3CCCC3)C(=O)N3CCC[C@@H]3CC(=O)N(C)[C@@H](CC)C(=O)N[C@@H]([C@@H](C)CC)C(=O)N(C)CC(=O)N(C)[C@H]3C/C=C\CCN(C3=O)[C@@H](Cc3ccc(C(F)(F)F)cc3)C(=O)N(C)CC(=O)N[C@@H](CCc3cc(F)c(C(F)(F)F)c(F)c3)C(=O)N2C1 [PP1609],–,–,–,–,A (a compound having 10 or more and less than 20 is denoted as A),A (a compound having 10 or more and less than 20 is denoted as A)
17.8,CCC[C@@H]1C[C@H]2C(=O)NC3(CC(C)(C)C3)C(=O)N(C)[C@@H](C3CCCC3)C(=O)N(C)[C@H](C(=O)N(C)C)CC(=O)N(C)[C@@H](CC)C(=O)N[C@@H]([C@@H](C)CC)C(=O)N(C)CC(=O)N(C)[C@H]3C/C=C\CCN(C3=O)[C@@H](Cc3ccc(C)cc3)C(=O)N(C)CC(=O)N[C@@H](CCc3cc(F)c(C(F)(F)F)c(F)c3)C(=O)N2C1 [PP2208],–,–,A (a compound having 10 or more and less than 20 is denoted as A),A (a compound having 10 or more and less than 20 is denoted as A),–,–
2,"CCCN1C(=O)CN(C)C(=O)CNC(=O)[C@H]([C@@H](C)CC)NC(=O)[C@H](CC(C)C)N(C)C(=O)C[C@@H](C(=O)N2CCOCC2)N(C)C(=O)[C@H](C2CCCC2)N(C)C(=O)C2(CCCC2)NC(=O)[C@@H]2CC(C)(C)CN2C(=O)[C@H](CCc2ccc(C(F)(F)F)c(Cl)c2)NC(=O)CN(C)C(=O)[C@@H]1Cc1ccc(C(F)(F)F)cc1 [PP0448] ([NMeL]IG[Sar][NPrPhe(4-CF3)][Sar][hPhe(3-Cl-4-CF3)][Pro(4,4-Me2)][Ac5c][NMeGly(cPent)][NMeD]-Morpholide; lactam N-11)",–,–,C (A compound having a KD ratio of 0.1 or more and less than 3 is denoted as C),B (a compound having 3 or more and less than 10 is denoted as B),–,–

# Source: EP4603105A1, “PHARMACEUTICAL COMPOSITION CONTAINING CYCLIC COMPOUND HAVING SELECTIVE KRAS INHIBITORY EFFECT AGAINST HRAS AND NRAS” (CHUGAI SEIYAKU KABUSHIKI KAISHA, priority 2022, dated 2024)
